pIC50: −log10 of the molar value.
Columns and labels:
L1210 [1] = test: Cytotoxicity expressed as concentration required to inhibit cell growth by 50% on continuous exposure time of 72 hr in L1210 cell line by MTT assay.; format: functional, cell-based; conditions: Mus musculus, L1210, 72 h
L1210 [2] = test: Cytotoxicity expressed as concentration required to inhibit cell growth by 50% on continuous exposure time of 96h in L1210 cell line by MTT assay.; format: functional, cell-based; conditions: Mus musculus, L1210, 96 h
Mus musculus [3] = test: Percentage change in the body weight on day 20 after intravenous administration (8 mg/Kg) against human breast cancer xenograph Bcap-37 (grown sc in athymic mice); format: functional
Mus musculus [4] = test: Percentage change in the body weight on day 20 after intravenous administration (10 mg/kg) against B16 melanoma (implanted subcutaneously in mice).; format: functional
Mus musculus [5] = test: Tumor inhibition expressed as (average tumor weight of treated group/average tumor weight of control group)*100 at a dose of (8 mg/kg); format: functional
Mus musculus [6] = test: Tumor inhibition expressed as (average tumor weight of treated group/average tumor weight of control group)*100 at a dose of 10 mg/kg; format: functional
PG-49 cell line [7] = test: Cytotoxicity expressed as concentration required to inhibit cell growth by 50% on continuous exposure time of 72 hr in PG-49 cell line by MTT assay.; format: functional, cell-based; conditions: Homo sapiens, PG-49, 72 h
PG-49 cell line [8] = test: Cytotoxicity expressed as concentration required to inhibit cell growth by 50% on continuous exposure time of 96h in PG-49 cell line by MTT assay.; format: functional, cell-based; conditions: Homo sapiens, PG-49, 96 h
[9] = Toxicity expressed in terms of number of toxic deaths after administration (10 mg/Kg) in mice; out of 10 tested; conditions: mouse, in vivo
[10] = Toxicity expressed in terms of number of toxic deaths after administration (8 mg/Kg) in athymic mice; out of 6 tested; conditions: mouse, in vivo

Work on `CC(=O)O[C@H]1C(=O)[C@@]2(C)[C@H]([C@H](OC(=O)c3ccccc3)[C@]3(O)C[C@H](OC(=O)[C@H](O)[C@@H](NC(=O)c4ccccc4)c4ccccc4)C(C)=C1C3(C)C)[C@]1(OC(C)=O)CO[C@@H]1C[C@@H]2O` [PACLITAXEL] yielded a pIC50 (L1210 [1]) of 9.24, a pIC50 (L1210 [2]) of 10.05 and a Body weight change (Mus musculus [3]) of 16.9%. The Body weight change (Mus musculus [4]) was 7.8%, the Tumor inhibition (Mus musculus [5]) was 78.02% and the Tumor inhibition (Mus musculus [6]) was 71.4%. The pIC50 (PG-49 cell line [7]) was 8.67, the pIC50 (PG-49 cell line [8]) was 9.51 and the Toxicity [9] was 2. It also gave a Toxicity [10] of 0.
